Laboratory results: patent US7045532B2 (Millennium Pharmaceuticals, Inc., priority 1999, dated 2006)
Where two headings read alike, the source gives them in different places.

Columns and labels:
ACE-2 [1] = molecular target: T1, ACE-2 (Homo sapiens, UniProt Q9BYF1); test: ACE-2 Competitive Substrate Assay (ACS Assay); assay type: biochemical
T1 construct: a stop codon inserted after the serine immediately preceding the transmembrane domain; made in house; host or cells: CHO K1 cells (transient transfection, purified from conditioned medium)

ACE-2 [2] = molecular target: ACE-2 (Rattus norvegicus, UniProt Q5EGZ1); test: ACE-2 Competitive Substrate Assay, rat ACE-2; assay type: biochemical; conditions: Ki class, compounds tested in 5% DMSO
ACE (Sigma, A2580) = molecular target: T2, ACE (Sigma, A2580) (Sus scrofa, UniProt F1RRW5); test: ACE enzymatic activity assay; assay type: biochemical, porcine; conditions: Ki class, compounds tested in 5% DMSO
T2 construct: ACE from porcine kidney; purchased Sigma A2580; host or cells: porcine kidney
T2 sequence (F1RRW5 34-1309): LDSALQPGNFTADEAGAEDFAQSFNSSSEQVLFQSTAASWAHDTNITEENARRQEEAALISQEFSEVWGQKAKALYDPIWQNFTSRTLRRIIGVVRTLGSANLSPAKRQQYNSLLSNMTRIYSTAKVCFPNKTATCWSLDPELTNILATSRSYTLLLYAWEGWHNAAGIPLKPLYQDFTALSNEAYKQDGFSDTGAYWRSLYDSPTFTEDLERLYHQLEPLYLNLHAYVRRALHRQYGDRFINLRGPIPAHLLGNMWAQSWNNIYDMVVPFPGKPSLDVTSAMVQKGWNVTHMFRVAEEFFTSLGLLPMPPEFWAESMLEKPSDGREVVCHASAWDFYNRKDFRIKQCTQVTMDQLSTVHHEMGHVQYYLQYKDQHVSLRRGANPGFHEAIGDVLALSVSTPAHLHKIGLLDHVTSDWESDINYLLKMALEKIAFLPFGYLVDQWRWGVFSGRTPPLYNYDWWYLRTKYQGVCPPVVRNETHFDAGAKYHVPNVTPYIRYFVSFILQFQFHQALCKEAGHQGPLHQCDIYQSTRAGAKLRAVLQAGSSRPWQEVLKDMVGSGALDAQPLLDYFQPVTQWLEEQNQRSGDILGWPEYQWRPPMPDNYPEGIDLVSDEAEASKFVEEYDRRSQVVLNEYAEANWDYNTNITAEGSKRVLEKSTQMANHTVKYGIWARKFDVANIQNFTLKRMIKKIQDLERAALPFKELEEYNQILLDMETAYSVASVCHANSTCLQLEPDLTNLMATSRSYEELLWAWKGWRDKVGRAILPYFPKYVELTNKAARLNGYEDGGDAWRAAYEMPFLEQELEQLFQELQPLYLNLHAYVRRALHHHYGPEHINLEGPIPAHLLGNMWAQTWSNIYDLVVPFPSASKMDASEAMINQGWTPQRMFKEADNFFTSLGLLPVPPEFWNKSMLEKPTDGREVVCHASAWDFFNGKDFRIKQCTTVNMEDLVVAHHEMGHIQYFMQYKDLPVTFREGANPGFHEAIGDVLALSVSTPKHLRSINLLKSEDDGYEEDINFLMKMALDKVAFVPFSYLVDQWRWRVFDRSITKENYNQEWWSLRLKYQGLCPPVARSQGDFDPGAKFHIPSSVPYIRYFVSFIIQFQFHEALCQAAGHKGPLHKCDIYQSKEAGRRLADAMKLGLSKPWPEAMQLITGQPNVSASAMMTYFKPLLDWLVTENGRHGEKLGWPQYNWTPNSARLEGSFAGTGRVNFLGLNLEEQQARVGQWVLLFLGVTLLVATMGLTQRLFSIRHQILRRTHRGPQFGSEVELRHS
Summary of the method: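 Fluorogenic substrate cleavage by 1 nM ACE, read at 320/405 nm after EDTA stop at ~30 min. Reactions at 25 °C, pH 7.5, in HEPES/NaCl/Brij-35 buffer; compounds tested at 12 concentrations in 5% DMSO.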

Carboxypeptidase A = molecular target: T3, Carboxypeptidase A (Bos taurus, UniProt P00730); test: Carboxypeptidase A activity assay; assay type: biochemical; conditions: Ki class, compounds tested in 5% DMSO
T3 sequence (P00730 111-419): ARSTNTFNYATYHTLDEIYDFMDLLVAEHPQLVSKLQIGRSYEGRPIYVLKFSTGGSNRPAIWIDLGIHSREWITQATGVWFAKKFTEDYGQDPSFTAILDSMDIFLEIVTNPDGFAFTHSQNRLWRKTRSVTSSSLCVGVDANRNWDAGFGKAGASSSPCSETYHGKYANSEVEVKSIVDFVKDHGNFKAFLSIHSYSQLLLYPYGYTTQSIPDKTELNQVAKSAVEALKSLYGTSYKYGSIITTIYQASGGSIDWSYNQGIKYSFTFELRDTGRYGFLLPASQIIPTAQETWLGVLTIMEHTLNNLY
Summary of the method: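 Ki obtained by correcting apparent Ki for substrate, Ki=Kiapp/(1+[S]/Km), from 12-concentration series. Enzyme activity read by absorbance at 328 nm with 5% DMSO present, EDTA stop.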

[3] = Ki class, compounds tested in 5% DMSO, 12 concentrations, read-out: Human ACE-2 Activity
[4] = Ki class, compounds tested in 5% DMSO, 12 compound concentrations, Ki=Kiapp/(1+[S]/Km), read-out: Human ACE-2 Activity
[5] = Table 3, very good ACE-2 inhibiting compounds, species not given, read-out: ACE-2 Activity, Ki

Chain of ACE-2 (Rattus norvegicus, UniProt Q5EGZ1) (Q5EGZ1 18-805): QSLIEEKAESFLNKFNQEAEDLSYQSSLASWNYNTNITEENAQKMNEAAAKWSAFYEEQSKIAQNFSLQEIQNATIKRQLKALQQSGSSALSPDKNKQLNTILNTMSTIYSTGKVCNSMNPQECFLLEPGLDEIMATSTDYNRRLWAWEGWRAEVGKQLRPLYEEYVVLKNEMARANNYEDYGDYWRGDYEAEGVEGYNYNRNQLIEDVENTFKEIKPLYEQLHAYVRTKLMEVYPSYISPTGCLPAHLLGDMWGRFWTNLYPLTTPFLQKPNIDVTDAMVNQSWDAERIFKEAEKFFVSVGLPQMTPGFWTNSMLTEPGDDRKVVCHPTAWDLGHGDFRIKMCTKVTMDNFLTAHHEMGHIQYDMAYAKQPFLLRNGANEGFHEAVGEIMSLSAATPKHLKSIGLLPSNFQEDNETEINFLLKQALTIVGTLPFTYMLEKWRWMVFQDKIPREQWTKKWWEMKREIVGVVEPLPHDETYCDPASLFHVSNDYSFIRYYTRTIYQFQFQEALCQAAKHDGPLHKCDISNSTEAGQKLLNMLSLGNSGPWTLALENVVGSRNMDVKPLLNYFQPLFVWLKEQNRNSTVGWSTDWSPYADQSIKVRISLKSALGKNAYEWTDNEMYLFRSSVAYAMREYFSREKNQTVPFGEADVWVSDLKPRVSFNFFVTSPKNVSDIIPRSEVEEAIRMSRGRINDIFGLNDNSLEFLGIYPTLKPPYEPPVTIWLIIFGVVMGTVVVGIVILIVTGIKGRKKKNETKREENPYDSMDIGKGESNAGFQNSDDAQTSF
T1 sequence (Q9BYF1 18-740 limits assumed): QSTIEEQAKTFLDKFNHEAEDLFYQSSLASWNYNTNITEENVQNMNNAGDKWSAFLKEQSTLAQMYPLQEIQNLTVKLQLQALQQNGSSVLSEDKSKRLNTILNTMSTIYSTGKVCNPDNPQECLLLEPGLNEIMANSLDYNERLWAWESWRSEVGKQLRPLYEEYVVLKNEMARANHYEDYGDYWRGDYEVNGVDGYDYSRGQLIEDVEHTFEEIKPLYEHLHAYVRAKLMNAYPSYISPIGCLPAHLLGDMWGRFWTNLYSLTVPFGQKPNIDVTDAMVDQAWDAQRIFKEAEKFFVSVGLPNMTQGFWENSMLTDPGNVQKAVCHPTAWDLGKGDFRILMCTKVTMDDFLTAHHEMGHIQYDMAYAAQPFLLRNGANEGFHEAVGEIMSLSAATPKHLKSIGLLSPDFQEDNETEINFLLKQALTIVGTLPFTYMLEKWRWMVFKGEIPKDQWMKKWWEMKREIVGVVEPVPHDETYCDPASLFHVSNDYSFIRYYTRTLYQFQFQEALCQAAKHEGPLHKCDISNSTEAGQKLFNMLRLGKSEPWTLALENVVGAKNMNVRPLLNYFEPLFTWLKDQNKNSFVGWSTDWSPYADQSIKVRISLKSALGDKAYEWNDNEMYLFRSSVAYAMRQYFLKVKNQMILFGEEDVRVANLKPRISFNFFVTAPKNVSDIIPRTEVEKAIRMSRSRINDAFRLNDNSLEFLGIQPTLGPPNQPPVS

Structure (SMILES) | Ki (ACE-2 [1]; [3]) | Ki (ACE-2 [2]; 12 concentrations) | Ki (ACE (Sigma, A2580); 12 concentrations) | Ki (Carboxypeptidase A; 12 concentrations) | Ki (ACE-2 [1]; [4]) | Ki (ACE-2 [2]; 12 compound concentrations) | Ki (ACE (Sigma, A2580); 12 compound concentrations) | Ki (Carboxypeptidase A; 12 compound concentrations) | Ki (ACE-2 [1]; [5])
O=C(O)C(Cc1ccccc1)N[C@@H](Cc1cncn1Cc1ccccc1)C(=O)O (single isomer, unassigned) [GF, 3-(3-Benzyl-3H-imidazol-4-yl)-2-(1-carboxy-2-phenyl-ethylamino)-propionic acid] | > 0.5 µM | 0.1 to 0.5 µM | > 50 µM | < 10 µM | – | – | – | – | –
CC(C)CC(N[C@@H](Cc1cncn1Cc1cccc2ccccc12)C(=O)O)C(=O)O (single isomer, unassigned) [GK, 2-[1-Carboxy-2-(3-naphthalen-1-ylmethyl-3Himidazol-4-yl)-ethylamino]4-methyl-pentanoic acid] | < 0.1 µM | < 0.1 µM | > 50 µM | 10 to 50 µM | – | – | – | – | –
CC(C)CC(N[C@@H](Cc1cncn1Cc1ccc(Cl)cc1)C(=O)O)C(=O)O (single isomer, unassigned) [GM, 2-[1-Carboxy-2-[3-(4-chloro-benzyl)-3H-imidazol-4-yl]-ethylamino]4-methyl-pentanoic acid] | < 0.1 µM | < 0.1 µM | > 50 µM | 10 to 50 µM | – | – | – | – | –
CC(C)CC(N[C@@H](Cc1cncn1Cc1ccc(Cl)c(Cl)c1)C(=O)O)C(=O)O (single isomer, unassigned) [GW] | – | – | – | – | < 0.1 µM | < 0.1 µM | 10 to 50 µM | 10 to 50 µM | –
CC(C)CC(N[C@@H](Cc1cncn1Cc1cccc(Cl)c1)C(=O)O)C(=O)O (single isomer, unassigned) [HC, 2-[1-Carboxy-2-[3-(3-chloro-benzyl)-3H-imidazol-4-yl]-ethylamino)4-methyl-pentanoic acid] | – | – | – | – | < 0.1 µM | < 0.1 µM | 10 to 50 µM | 10 to 50 µM | < 0.05 µM
Cc1ccc(Cn2cncc2C[C@H](NC(CC(C)C)C(=O)O)C(=O)O)cc1 (single isomer, unassigned) [HG, 2-[1-Carboxy-2-[3-(4-methyl-benzyl)-3H-imidazol-4-yl]-ethylamino)4-methyl-pentanoic acid] | – | – | – | – | < 0.1 µM | < 0.1 µM | 10 to 50 µM | 10 to 50 µM | < 0.05 µM
Cc1ccc(Cn2cncc2C[C@H](NC(CC(C)C)C(=O)O)C(=O)O)cc1C (single isomer, unassigned) [HK, 2-[1-Carboxy-2-[3-(3,4-dimethyl-benzyl)-3H-imidazol-4-yl]-ethylamino)4-methyl-pentanoic acid] | – | – | – | – | < 0.1 µM | < 0.1 µM | 10 to 50 µM | 10 to 50 µM | < 0.05 µM
Cc1cccc(Cn2cncc2C[C@H](NC(CC(C)C)C(=O)O)C(=O)O)c1 (single isomer, unassigned) [HO, 2-[1-Carboxy-2-[3-(3-methyl-benzyl)-3H-imidazol-4-yl]-ethylamino]4-methyl-pentanoic acid] | – | – | – | – | < 0.1 µM | < 0.1 µM | 10 to 50 µM | 10 to 50 µM | < 0.05 µM
Cc1cc(C)cc(Cn2cncc2C[C@H](NC(CC(C)C)C(=O)O)C(=O)O)c1 (single isomer, unassigned) [HQ, 2-[1-Carboxy-2-[3-(3,5-dimethyl-benzyl)-3H-imidazol-4-yl]-ethylamino]4-methyl-pantanoic acid] | – | – | – | – | < 0.1 µM | < 0.1 µM | 10 to 50 µM | 10 to 50 µM | < 0.05 µM
CC(C)CC(N[C@@H](Cc1cncn1Cc1ccc(OC(F)(F)F)cc1)C(=O)O)C(=O)O (single isomer, unassigned) [HS, 2-[1-Carboxy-2-[3-(4-trifluoromethoxy-benzyl)-3H-imidazol-4-yl]-ethylamino]-4-methyl-pentanoic acid] | – | – | – | – | < 0.1 µM | 0.1 to 0.5 µM | 10 to 50 µM | 10 to 50 µM | 0.05 to 0.1 µM
